Test results taken from publication PMC12521541, “A novel D-peptide modulates DCLK1 gelsolin interactions, reducing PDAC tumor growth” (Scientific Reports, 2025).
Entries after “also recorded” stand apart in the source; their conditions may differ. Like-named read-outs stand apart in the source and are kept apart here. Non-standard residues stand in square brackets, D forms with d. Residues, ends and D or L forms follow the SMILES beside them.

What was measured:
DCLK1 isoform 1 = experiment: Crossreactivity with DCLK1 isoform 1; type: binding, human
[1] = tested on: AsPC-1 pancreatic cancer cells; experiment: Colony formation assay (clonogenicity), AsPC-1; type: cell-based; conditions: blinded study
[2] = tested on: Capan-1 pancreatic cancer cells; experiment: Colony formation assay (clonogenicity), Capan-1; type: cell-based; conditions: blinded study
AsPC-1 cells = experiment: PDAC spheroid self-renewal assay, AsPC-1; type: cell-based; conditions: Matrigel 7 days or 0.3% agar 3 weeks
Procedure: (§1) AsPC-1 and CAPAN-1 cancer cells were treated with candidate D-peptides or vehicle control and suspended in growth factor-reduced Matrigel™ for 7 days or 0.3% agar for 3 weeks and monitored for spheroid growth. The size and number of spheroids were analyzed, counted, and then compared between the treatment groups[41],[42].

Capan-1 cells = experiment: PDAC spheroid self-renewal assay, Capan-1; type: cell-based; conditions: Matrigel 7 days or 0.3% agar 3 weeks
Procedure: as §1

[3] = tested on: PDAC cell lines AsPC-1 and Capan-1; experiment: Functional bioassays in PDAC cell lines (overall activity); type: cell-based; conditions: summary of bioassays in AsPC-1 and Capan-1
Procedure: (§2) AsPC-1 and CAPAN-1 cells were grown as previously described with varying concentrations of candidate D-peptides[40]. Afterward, we treated cells with TACS MTT Reagent (RND Systems) at 37 C until a dark crystalline precipitate within the cells was observed. NH4OH in DMSO was added and incubated for 10 min while protected from light. We determined the OD550 and averaged it as a percentage of cell proliferation.
as §1

[4] = tested on: PDAC cells (AsPC-1 and CAPAN-1); experiment: Proliferation assay (MTT); type: cell-based; conditions: OD550, in vitro
Procedure: as §2

AsPC-1 xenografts = experiment: AsPC-1 xenograft tumor growth; type: in vivo; conditions: for gross inspection of excised xenografts: AsPC-1 flank xenografts, excised after treatment until day 36
Procedure: Athymic nude (Foxn1^nu/Foxn1^nu) mice were purchased from the Jackson Laboratory (Bar Harbor, Maine) and housed in pathogen-free conditions. AsPC-1 cells (1 × 10^7) were injected subcutaneously into the flanks of 4- to 6-week-old mice (n = 3/group). Tumors were measured using a caliper and the volume was calculated as (length × width^2) × 0.5. Once tumors achieved an average size of ~ 100 mm^3 mice were injected via intraperitoneal injection (10 mg/kg, […]) with selected D-peptides. Treatments were continued every three days until day 36. Xenografts were then excised and evaluated by gross inspection.

[5] = Assessment of DCLK1 D-peptide toxicity in mice; type: in vivo; conditions: athymic mice; escalating doses every three days, 750 µg increasing by 500 µg to 4000 µg/mouse; vs saline-treated controls
Procedure: Supplemental Figure 1. Assessment of DCLK1 D-peptide Toxicity in Mice. Mice received escalating doses of D-peptide 1 every three days, starting with 750 µg (equivalent to 210 nM in blood and extravascular fluid) and increasing by 500 µg per dose, reaching a maximum of 4000 µg/mouse. Monitored toxicity indicators included soft feces, urine stains, depression, rough coat, nasal/ocular discharge, hunching, and body weight changes. […] Major organs were collected, and serum was stored for further biochemical analysis.

[6] = tested on: DCLK1 isoform 4 / mAb CBT-15; experiment: Competition assay: mAb CBT-15 binding to DCLK1 isoform 4; parameters: species or system human; conditions: mean ± SEM; *p < 0.01
DCLK1 isoform 4 / pGSN = experiment: ELISA binding of plasma gelsolin (pGSN) to DCLK1 isoform 4; parameters: species or system human; conditions: for effect of peptide on pGSN binding to DCLK1 isoform 4: peptide 20 mg/well (so in the source), pGSN at 2 µg/ml
Procedure: (§3) Polystyrene microtitre Immulon 2HB plate was coated with freshly prepared (400 ng/50 ml) DCLK1 isoform 4 ([…]) in 0.1 M NaHCO3, pH 8.6, overnight at 4 C. After blocking with 1% gelatin in TTBS at RT, different concentrations of gelsolin or FGF19 were added (2 mg/50ul/well, 1 mg/well, 0.5 mg/well, and 0.25 mg/well at […], proteins diluted in TTBS), and incubated at RT. To study the competitive ability of peptides, we used 20 mg/well of either D-peptide 1, D-peptide 3, D-peptide 5, or the C-terminal peptide antigen for the mAb CBT-15. After incubation at RT, plates were washed with TTBS, and bound gelsolin or FGF19 was detected. Bound plasma gelsolin (ab233671; Abcam, Waltham, MA) was immunodetected with anti-gelsolin Ab (ab11081; Abcam, Waltham, MA) or FGF19 (969-FG-025; Bio-Techne, Minneapolis, MN) immunodetected by anti-FGF19 (sc-390621; Santa Cruz Biotechnology, Dallas, TX). Detection was by alkaline phosphatase-conjugated goat anti-mouse IgG (ab97020; Abcam, Waltham, MA) followed by 1-STEP NBT/BCIP substrate (#34042; ThermoFisher Scientific, Waltham, MA) and quantified at 450 nm on a microplate reader.

DCLK1 isoform 4 / FGF19 = experiment: ELISA binding of FGF19 to DCLK1 isoform 4; parameters: species or system human
Procedure: as §3

DCLK1 isoform 4 = target: T1, DCLK1 isoform 4 (Homo sapiens, UniProt O15075); experiment: SPR analysis of DCLK1 isoform 4 with Gelsolin and FGF19; type: binding; conditions: for Kinetic 1:1 Ave Kd: kinetic 1:1, average (dissociation rate)
T1 sequence (O15075 687-740 limits assumed): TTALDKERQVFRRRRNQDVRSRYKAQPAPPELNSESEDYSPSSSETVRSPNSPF
Procedure: Purification of human DCLK1 isoform 4 was performed at the University of Oklahoma Protein Production and Characterization Core Facility (Norman, OK) using an E. coli strain BL21(DE3) pLPP containing the pET19-DCLK1 isoform 4 plasmid. For Bio-layer Interferometry (BLI) experiments, a C-terminal DCLK1 isoform 2/4 His-tagged protein was used (NovoPro, Shanghai, China). All His-tagged proteins were dialyzed using PBS/glycerol to remove imidazole.

plasma gelsolin = target: T2, plasma gelsolin (UniProt P06396 28-782); experiment: SPR; format and conditions not told in the text shown (Fig. 4F, G; Suppl. Table 1); conditions: both partners purified
T2 construct: plasma gelsolin (pGSN), bought protein; The source is told for the ELISA only; also called pGSN; source: bought: Abcam (ab233671)

[7] = kinetic 1:1, average, read-out: Kinetic 1:1 Ave KD

T2 sequence (P06396 28-782): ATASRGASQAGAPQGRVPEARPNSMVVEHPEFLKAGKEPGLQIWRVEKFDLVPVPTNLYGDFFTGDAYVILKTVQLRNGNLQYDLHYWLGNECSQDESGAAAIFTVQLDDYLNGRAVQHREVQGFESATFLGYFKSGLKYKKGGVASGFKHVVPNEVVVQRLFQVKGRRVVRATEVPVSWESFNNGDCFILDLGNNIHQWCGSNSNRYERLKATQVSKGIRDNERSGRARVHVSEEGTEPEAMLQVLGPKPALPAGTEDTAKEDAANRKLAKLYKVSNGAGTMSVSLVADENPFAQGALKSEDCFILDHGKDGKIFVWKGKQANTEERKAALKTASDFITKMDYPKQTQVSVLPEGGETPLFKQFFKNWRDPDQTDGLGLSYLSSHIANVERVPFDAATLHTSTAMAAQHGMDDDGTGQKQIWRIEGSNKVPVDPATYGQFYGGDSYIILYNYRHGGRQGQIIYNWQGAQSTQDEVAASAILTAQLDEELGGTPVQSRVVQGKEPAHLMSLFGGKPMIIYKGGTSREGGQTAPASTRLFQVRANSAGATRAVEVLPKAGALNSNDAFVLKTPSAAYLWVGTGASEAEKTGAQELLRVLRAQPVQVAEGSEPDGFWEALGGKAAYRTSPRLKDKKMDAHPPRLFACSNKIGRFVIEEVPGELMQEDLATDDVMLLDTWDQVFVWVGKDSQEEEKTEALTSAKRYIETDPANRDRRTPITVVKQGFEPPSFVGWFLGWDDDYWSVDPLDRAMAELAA

Q: For `NCC(=O)N[C@H](Cc1c[nH]c2ccccc12)C(=O)N[C@H](Cc1ccc(O)cc1)C(=O)NCC(=O)N[C@H](Cc1c[nH]c2ccccc12)C(=O)NCC(=O)N[C@H](CC(=O)O)C(=O)N[C@H](CC(=O)O)C(=O)O` [D-peptide 1] (H-G[dW][dY]G[dW]G[dD][dD]-OH; N-terminus and C-terminus assumed), which “crossreactivity with isoform 1” value (DCLK1 isoform 1) is on record?
A: Its value is “minimal crossreactivity with isoform 1”.

Q: What about the “colony formation (clonogenicity)” value [1] of the same molecule?
A: The value was “significantly reduced colony formation (clonogenicity) at low micromolar concentrations”.

Q: And the “colony formation (clonogenicity)” value [2]?
A: Its value is “significantly reduced colony formation (clonogenicity) at low micromolar concentrations”.

Q: And the “spheroid formation / self-renewal capacity” value (AsPC-1 cells)?
A: The value was “markedly impaired self-renewal capacity”.

Q: And the “spheroid formation / self-renewal capacity” value (Capan-1 cells)?
A: The value was “markedly impaired self-renewal capacity”.

Q: What about the “potency/activity in the bioassays” value [3] of the same molecule?
A: Its value is “high potency in the bioassays”.

Q: What about the PDAC cell proliferation [4] of the same molecule?
A: The PDAC cell proliferation was “modest in vitro proliferation decreases”.

Q: What about the “gross inspection of excised xenografts” value (AsPC-1 xenografts) of the same molecule?
A: Its value is “no visible necrosis or hemorrhage was observed”.

Q: What about the “gross inspection of excised xenografts” value (AsPC-1 xenografts; listed as Dpeptide 1) of the same molecule?
A: Its value is “no gross necrosis, hemorrhage, or cavitation”.

Q: And the “reduction of tumor volume compared to controls” value (AsPC-1 xenografts; AsPC-1 xenografts, athymic mice, 10 mg/kg intraperitoneal, until day 36, control peptide D-peptide 3)?
A: The value was 60%.

Q: What about the “tumor size/growth compared to control” value (AsPC-1 xenografts; AsPC-1 xenografts, every three days for six doses, 36 days, control D-peptide 3 n = 8, D-peptide 1 n = 9, *p < 0.01) of the same molecule?
A: Its value is “significantly reduced tumor size compared to control”.

Q: What about the “general toxicity during xenograft treatment” value (AsPC-1 xenografts; flank xenograft model) of the same molecule?
A: The value was “without general toxicity in non–DCLK1–expressing tissues”.

Q: And the toxicity [5]?
A: Its toxicity is “no adverse effects compared to saline-treated controls; also recorded: no apparent toxicity”.

Q: What about the “competition with mAb CBT-15 for DCLK1 isoform 4 binding” value [6] of the same molecule?
A: Its value is “interacts at a site distinct from CBT-15’s binding site; also recorded: its epitope is distinct from that of mAb CBT-15”.

Q: What about the “effect of peptide on pGSN binding to DCLK1 isoform 4” value (DCLK1 isoform 4 / pGSN) of the same molecule?
A: Its value is “did not block the PPI interaction but seemed to improve pGSN binding to DCLK1; also recorded: enhances pGSN binding”.

Q: And the “effect of peptide on pGSN binding to DCLK1 isoform 4” value (DCLK1 isoform 4 / pGSN; listed as Dpeptide 1)?
A: The value was “binds a distinct site and allosterically enhances pGSN association”.

Q: What about the “effect of peptide on FGF19 binding to DCLK1 isoform 4” value (DCLK1 isoform 4 / FGF19; peptide 20 mg/well (so in the source)) of the same molecule?
A: Its value is “weak effect with FGF19-DCLK1 association”.

Q: What does the source list for FGF19: FGF19 (969-FG-025; Bio-Techne)?
A: Kinetic 1:1 Ave Ka (DCLK1 isoform 4; kinetic 1:1, average): 5.09E+03 M^-1s^1; Kinetic 1:1 Ave Kd (DCLK1 isoform 4): 9.13E-03 s^1; Kd (DCLK1 isoform 4; [7]): 1.79 µM; Kd (DCLK1 isoform 4; steady-state, average, read-out: Steady-state Affinity Ave KD): 0.97 µM; FGF19 binding to DCLK1 isoform 4 (DCLK1 isoform 4 / FGF19): bound to DCLK1 isoform 4 similarly to pGSN

Q: For Gelsolin, which “Kinetic 1:1 Ave Ka” value (DCLK1 isoform 4; kinetic 1:1, average) is on record?
A: Its value is 5.48E+03 M^-1s^1.

Q: What about the “Kinetic 1:1 Ave Kd” value (DCLK1 isoform 4) of the same molecule?
A: The value was 5.47E-04 s^1.

Q: And the Kd (DCLK1 isoform 4; [7])?
A: The Kd was 0.099 µM.

Q: And the “concentration of maximum pGSN binding to DCLK1 isoform 4” value (DCLK1 isoform 4 / pGSN; DCLK1-coated plates, pGSN gradient, R^2 of 0.94)?
A: The value was 2 µg/ml.

Q: And the “pGSN binding to DCLK1 isoform 4” value (DCLK1 isoform 4 / pGSN; pGSN gradient)?
A: The value was “consistent, linear binding”.

B1: human DCLK1 isoform 4 (beta-short) (natural protein, UniProt O15075-4 1-433, looked up)
chain: MLELIEVNGTPGSQLSTPRSGKSPSPSPTSPGSLRKQRSSQHGGSSTSLASTKVCSSMDENDGPGEEVSEEGFQIPATITERYKVGRTIGDGNFAVVKECVERSTAREYALKIIKKSKCRGKEHMIQNEVSILRRVKHPNIVLLIEEMDVPTELYLVMELVKGGDLFDAITSTNKYTERDASGMLYNLASAIKYLHSLNIVHRDIKPENLLVYEHQDGSKSLKLGDFGLATIVDGPLYTVCGTPTYVAPEIIAETGYGLKVDIWAAGVITYILLCGFPPFRGSGDDQEVLFDQILMGQVDFPSPYWDNVSDSAKELITMMLLVDVDQRFSAVQVLEHPWVNDDGLPENEHQLSVAGKIKKHFNTGPKPNSTAAGVSVIATTALDKERQVFRRRRNQDVRSRYKAQPAPPELNSESEDYSPSSSETVRSPNSPF
notes: For the library screen the protein was labelled with biotin (NHS-LC-biotin); source: E. coli BL21(DE3) pLPP with the pET19-DCLK1 isoform 4 plasmid, purified
Q: For B1, which Kd (plasma gelsolin) is on record?
A: The Kd was ~0.1 µM.
